Laboratory results: patent publication US9718822B2, “Macrocyclic compounds as Trk kinase inhibitors” (Array BioPharma, Inc., priority 2010, dated 2017)

The molecules below were run against histidine-tagged recombinant human TrkA, cytoplasmic domain (Homo sapiens (Human), UniProt P04629) (assay: TrkA ELISA Assay). Conditions: averaged IC50 values; […] TrkA, 500 μM ATP, 25 minutes at ambient temperature; read-out: TrkA Elisa Enzyme Assay IC50.
Type: biochemical
Description: An enzyme-linked immunosorbant assay (ELISA) was used to assess TrkA kinase activity in the presence of inhibitors. Immulon 4HBX 384-well microtiter plates (Thermo part #8755) were coated with a 0.025 mg/mL solution of poly (Glu, Ala, Tyr; 6:3:1; Sigma P3899). […] The assay buffer consisted of 25 mM MOPS pH 7.5, 0.005% (v/v) Triton X-100 and 5 mM MgCl2. The reaction mixture was removed from the plate by washing with PBS containing 0.1% (v/v) Tween 20. The phosphorylated reaction product was detected using 0.2 μg/mL of a phosphotyrosine specific monoclonal antibody (clone PY20) conjugated to horseradish peroxidase in conjunction with the TMB Peroxidase Substrate System (KPL). After the addition of 1M phosphoric acid, the chromogenic substrate color intensity was quantitated via absorbance at 450 nm. IC50 values were calculated using either a 4 or 5-parameter logistic curve fit.
Table 1 provides averaged IC50 values for compounds of the invention when tested in this assay.
Throughout, for TrkA Elisa Enzyme Assay IC50: 2.5 nM TrkA.

histidine-tagged recombinant human TrkA, cytoplasmic domain, sequence (P04629 440-796): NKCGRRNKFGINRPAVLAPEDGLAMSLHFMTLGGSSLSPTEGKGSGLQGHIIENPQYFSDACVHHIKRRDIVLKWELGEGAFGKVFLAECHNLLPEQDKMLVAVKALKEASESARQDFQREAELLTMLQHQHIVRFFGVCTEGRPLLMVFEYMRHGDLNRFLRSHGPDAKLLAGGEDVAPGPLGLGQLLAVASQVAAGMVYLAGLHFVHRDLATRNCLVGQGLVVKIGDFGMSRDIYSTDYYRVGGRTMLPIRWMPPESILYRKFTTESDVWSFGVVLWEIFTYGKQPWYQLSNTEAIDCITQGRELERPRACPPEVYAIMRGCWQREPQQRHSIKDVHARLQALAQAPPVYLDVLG

IC50 | Structure (SMILES)
1 to 100 nM | O=C1NCC(O)COc2ncc(F)cc2[C@H]2CCCN2c2ccn3ncc1c3n2 (stereo partly drawn) [Example 6, (6R)-9-fluoro-15-hydroxy-13-oxa-2,11,17,21,22,25-hexaazapentacyclo-[17.5.2.0^2,6.0^7,12.0^22,26]hexacosa-1(25),7,9,11,19(26),20,23-heptaen-18-one]

Same assay, conditions: read-out: TrkA Elisa Enzyme Assay IC50

IC50 | Structure (SMILES)
100 to 3000 nM | O=C1NCCOc2ncc(F)cc2[C@H]2COC(=O)N2c2ccn3ncc1c3n2 [Example 31, (6S)-9-fluoro-4,13-dioxa-2,11,16,20,21,24-hexaazapentacyclo [16.5.2.0^2,6.0^7,12.0^21,25]pentacosa-1(24),7(12),8,10,18(25),19,22-heptaene-3,17-dione]
1 to 100 nM | CCNC(=O)N1CCCOc2ccc(F)cc2[C@H]2CCCN2c2ccn3ncc(c3n2)C1 [Example 28]
1 to 100 nM | CS(=O)(=O)N1CCCOc2ccc(F)cc2[C@H]2CCCN2c2ccn3ncc(c3n2)C1 [Example 27, (6R)-9-fluoro-7-methanesulfonyl-13-oxa-2,17,21,22,25-pentaazapentacyclo[17.5.2.0^2,6.0^7,12.0^22,26]hexacosa-1(25),7,9,11,19(26),20,23-heptaene]
1 to 100 nM | CCNC(=O)N1CCOc2ccc(F)cc2[C@H]2CCCN2c2ccn3ncc(c3n2)C1 [Example 29, (6R)—N-ethyl-9-fluoro-13-oxa-2,16,20,21,24-pentaazapentacyclo-[16.5.2.0^2,6.0^7,12.0^21,25]pentacosa-1(24),7,9,11,18(25),19,22-heptaene-16-carboxamide]

The next lines start with the molecule.

Structure (SMILES) | IC50
Fc1ccc2c(c1)[C@H]1CCCN1c1ccn3ncc(c3n1)CNCCO2 [Example 21, (6R)-9-fluoro-13-oxa-2,16,20,21,24-pentaazapentacyclo[16.5.2.0^2,6.0^7,12.0^21,25]pentacosa-1(24),7,9,11,18(25),19,22-heptaene] | 100 to 3000 nM
O=C(O)CN1CCOc2ccc(F)cc2[C@H]2CCCN2c2ccn3ncc(c3n2)C1 [Example 26, 2-[(6R)-9-fluoro-13-oxa-2,16,20,21,24-pentaazapentacyclo[16.5.2.0^2,6.0^7,12.0^21,25]pentacosa-1(24),7,9,11,18(25),19,22-heptaen-16-yl]acetic acid] | 100 to 3000 nM
CC(=O)N1CCOc2ccc(F)cc2[C@H]2CCCN2c2ccn3ncc(c3n2)C1 [Example 22, 1-[(6R)-9-fluoro-13-oxa-2,16,20,21,24-pentaazapentacyclo[16.5.2.0^2,6.0^7,12.0^21,25]pentacosa-1(24),7,9,11,18(25),19,22-heptaen-16-yl]ethan-1-one] | 1 to 100 nM
O=C1NCC(F)(F)COc2ncc(F)cc2[C@H]2CCCN2c2ccn3ncc1c3n2 [Example 19, (6R)-9,15,15-trifluoro-13-oxa-2,11,17,21,22,25-hexaazapentacyclo[17.5.2.0^2,6.0^7,12.0^22,26]hexacosa-1(25),7,9,11,19(26),20,23-heptaen-18-one] | 1 to 100 nM
O=C1NCCCCn2cc(F)cc(c2=O)[C@H]2CCCN2c2ccn3ncc1c3n2 [Example 11, (6R)-9-fluoro-2,11,16,20,21,24-hexaazapentacyclo[16.5.2.1^7,11.0^2,6.0^21,25]hexacosa-1(24),7,9,18(25),19,22-hexaene-17,26-dione] | 1 to 100 nM
Fc1ccc2c(c1)[C@H]1CCCN1c1ccn3ncc(c3n1)CNCCCO2 [Example 24, (6R)-9-fluoro-13-oxa-2,17,21,22,25-pentaazapentacyclo[17.5.2.0^2,6.0^7,12.0^22,26]hexacosa-1(25),7,9,11,19(26),20,23-heptaene] | 100 to 3000 nM
O=C1NCCNc2ncc(F)cc2[C@H]2CCCN2c2ccn3ncc1c3n2 [Example 12, (6R)-9-fluoro-2,11,13,16,20,21,24-heptaazapentacyclo[16.5.2.0^2,6.0^7,12.0^21,25]pentacosa-1(24),7,9,11,18(25),19,22-heptaen-17-one] | 1 to 100 nM
O=C1NCCCNc2ncc(F)cc2[C@H]2CCCN2c2ccn3ncc1c3n2 [Example 13, (6R)-9-fluoro-2,11,13,17,21,22,25-heptaazapentacyclo[17.5.2.0^2,6.0^7,12.0^22,26]hexacosa-1(25),7,9,11,19(26),20,23-heptaen-18-one] | 1 to 100 nM
CS(=O)(=O)N1CCOc2ccc(F)cc2[C@H]2CCCN2c2ccn3ncc(c3n2)C1 [Example 25, (6R)-9-fluoro-16-methanesulfonyl-13-oxa-2,16,20,21,24-pentaazapentacyclo[16.5.2.0^2,6.0^7,12.0^21,25]pentacosa-1(24),7,9,11,18(25),19,22-heptaene] | 1 to 100 nM
O=C1NC[C@@H](F)Cn2cc(F)cc(c2=O)[C@H]2CCCN2c2ccn3ncc1c3n2 [Example 17, (6R,13R)-9,13-difluoro-2,11,15,19,20,23-hexaazapentacyclo[15.5.2.1^7,11.0^2,6.0^20,24]pentacosa-1(23),7,9,17(24),18,21-hexaene-16,25-dione] | 1 to 100 nM

The molecules below were run against His-tagged recombinant human TrkA (cytoplasmic domain) (Homo sapiens (Human), UniProt P04629) (assay: TrkA Binding Assay (LanthaScreen Eu Kinase Binding Assay)). Conditions: not given.
His-tagged recombinant human TrkA (cytoplasmic domain), sequence (P04629 440-796): as above
Description: The ability of a compound to bind to TrkA was measured by Invitrogen's LanthaScreen™ Eu Kinase Binding Assay. […] After a 60-minute incubation at 22° C., the reaction was measured using the EnVision via TR-FRET dual wavelength detection, and the POC was calculated from the emission ratio. The compound dose response data was fit to a 4-parameter logistic model and IC50 was defined as the concentration of compound at 50 POC.

IC50 | Structure (SMILES)
100 to 3000 nM | O=C1NCCOc2ncc(F)cc2[C@H]2COC(=O)N2c2ccn3ncc1c3n2 [Example 31, (6S)-9-fluoro-4,13-dioxa-2,11,16,20,21,24-hexaazapentacyclo [16.5.2.0^2,6.0^7,12.0^21,25]pentacosa-1(24),7(12),8,10,18(25),19,22-heptaene-3,17-dione]
1 to 100 nM | O=C1NC[C@@H](O)COc2ccc(F)cc2[C@@H]2C[C@@H](O)CN2c2ccn3ncc1c3n2 [Example 44-B, (4R,6S,15R)-9-fluoro-4,15-dihydroxy-13-oxa-2,17,21,22,25-pentaazapentacyclo [17.5.2.0^2,6.0^7,12.0^22,26]hexacosa-1(25),7(2),8,10,19(26),20,23-heptaen-18-one]
1 to 100 nM | CC1(C)CNC(=O)c2cnn3ccc(nc23)N2CCC[C@@H]2c2cc(F)cn(c2=O)C1 [Example 40, (6R)-9-fluoro-13,13-dimethyl-2,11,15,19,20,23-hexaazapentacyclo [15.5.2.1^7,11.0^2,6.0^20,24]pentacosa-1(23),7,9,17(24),18,21-hexaene-16,25-dione]
1 to 100 nM | O=C1NC[C@@H](O)COc2ccc(F)cc2[C@H]2C[C@@H](O)CN2c2ccn3ncc1c3n2 [Example 44, (4R,6R,15R)-9-fluoro-4,15-dihydroxy-13-oxa-2,17,21,22,25-pentaazapentacyclo [17.5.2.0^2,6.0^7,12.0^22,26]hexacosa-1(25),7(12),8,10,19(26),20,23-heptaen-18-one]
1 to 100 nM | O=C1NCCCOc2ccc(F)cc2[C@H]2C[C@@H](O)CN2c2ccn3ncc1c3n2 [Example 42, (4R,6R)-9-fluoro-4-hydroxy-13-oxa-2,17,21,22,25-pentaazapentacyclo [17.5.2.0^2,6.0^7,12.0^22,26]hexacosa-1(25),7(12),8,10,19(26),20,23-heptaen-18-one]
1 to 100 nM | O=C1NCCOc2ccc(F)cc2[C@H]2C[C@@H](O)CN2c2ccn3ncc1c3n2 [Example 43, (4R,6R)-9-fluoro-4-hydroxy-13-oxa-2,16,20,21,24-pentaazapentacyclo [16.5.2.0^2,6.0^7,12.0^21,25]pentacosa-1(24),7,9,11,18(25),19,22-heptaen-17-one]
1 to 100 nM | CC1(C)CNC(=O)c2cnn3ccc(nc23)N2CCC[C@@H]2c2cc(F)cnc2OC1 [Example 36, (6R)-9-fluoro-15,15-dimethyl-13-oxa-2,11,17,21,22,25-hexaazapentacyclo [17.5.2.0^2,6.0^7,12.0^22,26]hexacosa-1(25),7,9,11,19(26),20,23-heptaen-18-one]

The next lines start with the molecule.

Structure (SMILES) | IC50
C[C@H]1CNC(=O)c2cnn3ccc(nc23)N2CCC[C@@H]2c2cc(F)cn(c2=O)C1 [Example 35, (6R,13S)-9-fluoro-13-methyl-2, 11, 15,19,20,23-hexaazapentacyclo [15.5.2.1^7,11.0^2,6.0^20,24]pentacosa-1(23),7,9,17(24),18,21-hexaene-16,25-dione] | 1 to 100 nM
O=C(O)CN1CCOc2ccc(F)cc2[C@H]2CCCN2c2ccn3ncc(c3n2)C1 [Example 26, 2-[(6R)-9-fluoro-13-oxa-2,16,20,21,24-pentaazapentacyclo[16.5.2.0^2,6.0^7,12.0^21,25]pentacosa-1(24),7,9,11,18(25),19,22-heptaen-16-yl]acetic acid] | 100 to 3000 nM
O=C1NCC(F)(F)COc2ncc(F)cc2[C@H]2CCCN2c2ccn3ncc1c3n2 [Example 19, (6R)-9,15,15-trifluoro-13-oxa-2,11,17,21,22,25-hexaazapentacyclo[17.5.2.0^2,6.0^7,12.0^22,26]hexacosa-1(25),7,9,11,19(26),20,23-heptaen-18-one] | 1 to 100 nM
O=C1NCCCCn2cc(F)cc(c2=O)[C@H]2CCCN2c2ccn3ncc1c3n2 [Example 11, (6R)-9-fluoro-2,11,16,20,21,24-hexaazapentacyclo[16.5.2.1^7,11.0^2,6.0^21,25]hexacosa-1(24),7,9,18(25),19,22-hexaene-17,26-dione] | 1 to 100 nM

Same assay, conditions: averaged IC50 values; TR-FRET, 60-minute incubation at 22° C., 2% DMSO final

IC50 | Structure (SMILES)
100 to 3000 nM | O=C1NCCCOc2ccc(F)cc2[C@@H]2C[C@@H](O)CN2c2ccn3ncc1c3n2 [Example 42-B, (4R,6S)-9-fluoro-4-hydroxy-13-oxa-2,17,21,22,25-pentaazapentacyclo [17.5.2.0^2,6.0^7,12.0^22,26]hexacosa-1(25),7(12),8,10,19(26),20,23-heptaen-18-one]
100 to 3000 nM | O=C1NCCOc2ccc(F)cc2[C@@H]2C[C@@H](O)CN2c2ccn3ncc1c3n2 [Example 43-B, (4R,6S)-9-fluoro-4-hydroxy-13-oxa-2,16,20,21,24-pentaazapentacyclo [16.5.2.0^2,6.0^7,2.0^21,25]pentacosa-1(24),7,9,11,18(25),19,22-heptaen-17-one]
100 to 3000 nM | O=C1NC[C@H](O)COc2ccc(F)cc2[C@@H]2C[C@@H](O)CN2c2ccn3ncc1c3n2 [Example 41-B, (4R,6S,15S)-9-fluoro-4,15-dihydroxy-13-oxa-2,17,21,22,25-pentaazapentacyclo [17.5.2.0^2,6.0^7,12.0^22,26]hexacosa-1(25),7(12),8,10,19(26),20,23-heptaen-18-one]

Second part, the molecule before the results:

Structure (SMILES) | IC50
O=C1NC[C@H](O)COc2ccc(F)cc2C2CC(F)(F)CN2c2ccn3ncc1c3n2 (single isomer, unassigned; diastereomer 2) [45 Diastereomer 2] | 1 to 100 nM
O=C1NCC(O)COc2ncc(F)cc2[C@H]2CCCN2c2ccn3ncc1c3n2 (stereo partly drawn) [Example 6, (6R)-9-fluoro-15-hydroxy-13-oxa-2,11,17,21,22,25-hexaazapentacyclo-[17.5.2.0^2,6.0^7,12.0^22,26]hexacosa-1(25),7,9,11,19(26),20,23-heptaen-18-one] | 1 to 100 nM
O=C1NC[C@H](O)COc2ccc(F)cc2C2CC(F)(F)CN2c2ccn3ncc1c3n2 (single isomer, unassigned; diastereomer 1) [45 Diastereomer 1] | 1 to 100 nM
